{
  "source": "the SangsterLogP compilation",
  "data": [
    {"experiment": "method code SF, from Suwinski, J.; Salwinska, E.; Watras, J.; Widel, M. (1985). Nitroimidazoles. VI. Partition coefficients and tautomerism of simple nitroimidazoles. 42(4)352-358.", "values": [
      {"smiles": "COc1c([N+](=O)[O-])ncn1C", "logP": 0.19},
      {"smiles": "Cc1nc(Cl)c([N+](=O)[O-])n1C", "logP": 0.87},
      {"smiles": "Cc1nc([N+](=O)[O-])c(Cl)[nH]1", "logP": 1.06},
      {"smiles": "Cc1nc(Br)n(C)c1[N+](=O)[O-]", "logP": 0.82},
      {"smiles": "O=[N+]([O-])c1ncc[nH]1", "logP": 0.11},
      {"smiles": "Cc1nc([N+](=O)[O-])c(N)n1C", "logP": -1.1},
      {"smiles": "Cn1c([N+](=O)[O-])cnc1Cl", "logP": 0.62},
      {"smiles": "Cc1c([N+](=O)[O-])ncn1C", "logP": -0.11},
      {"smiles": "Cc1[nH]c(Br)nc1[N+](=O)[O-]", "logP": 0.86},
      {"smiles": "Cn1cnc([N+](=O)[O-])c1", "logP": -0.44},
      {"smiles": "Cc1nc([N+](=O)[O-])c(Br)n1C", "logP": 0.44},
      {"smiles": "Cn1cnc([N+](=O)[O-])c1N", "logP": -1},
      {"smiles": "COc1[nH]c(C)nc1[N+](=O)[O-]", "logP": 0.21},
      {"smiles": "Cc1[nH]cnc1[N+](=O)[O-]", "logP": 0.23},
      {"smiles": "Cc1nc([N+](=O)[O-])c(Cl)n1C", "logP": 0.34},
      {"smiles": "Cc1nc([N+](=O)[O-])c(Br)[nH]1", "logP": 1.14},
      {"smiles": "O=[N+]([O-])c1[nH]cnc1Br", "logP": 0.78},
      {"smiles": "Cn1cc([N+](=O)[O-])nc1Br", "logP": 0.33},
      {"smiles": "Cn1cnc(Cl)c1[N+](=O)[O-]", "logP": 0.69},
      {"smiles": "COc1[nH]cnc1[N+](=O)[O-]", "logP": 0.13},
      {"smiles": "Cc1c([N+](=O)[O-])nc(Br)n1C", "logP": 0.39},
      {"smiles": "Cn1cc([N+](=O)[O-])nc1Cl", "logP": 0.19},
      {"smiles": "Cn1cnc(Br)c1[N+](=O)[O-]", "logP": 0.77},
      {"smiles": "COc1c([N+](=O)[O-])nc(C)n1C", "logP": -0.09},
      {"smiles": "Cc1nc([N+](=O)[O-])cn1C", "logP": -0.24},
      {"smiles": "Cn1cnc([N+](=O)[O-])c1Br", "logP": 0.36},
      {"smiles": "Cn1ccnc1[N+](=O)[O-]", "logP": -0.17},
      {"smiles": "Cc1nc(Br)c([N+](=O)[O-])n1C", "logP": 0.87},
      {"smiles": "Cn1cncc1[N+](=O)[O-]", "logP": 0.13}
    ]}
  ]
}
